Experiments:
[1] = molecular target: Replicase polyprotein 1ab (Severe acute respiratory syndrome coronavirus 2, UniProt P0DTD1); test: Inhibition of SARS-CoV-2 PLPro
[2] = Cytotoxicity against African green monkey Vero E6 cells assessed as cell viability at 10 uM measured after 48 hrs by MTT assay relative to control; type: toxicity, cell-based, Vero C1008; settings: chlorocebus sabaeus, read-out: Activity
[3] = Cytotoxicity against human HEK293 cells assessed as cell viability measured after 48 hrs by MTT assay; type: toxicity, cell-based

| SMILES | IC50 [1] [µM] | viability at 48 h, 10 µM [2] [%] | IC50 at 48 h [3] [µM] |
| --- | --- | --- | --- |
| O=C(O)c1cc(F)c2nc(N3[C@@H]4CC[C@H]3C[C@@H](OCc3c(-c5ccccc5OC(F)(F)F)noc3C3CC3)C4)sc2c1 [TROPIFEXOR] | 5.11 | – | – |
| COc1cccc2c1C(=O)c1c(O)c3c(c(O)c1C2=O)C[C@@](O)(C(=O)CO)C[C@@H]3O[C@H]1C[C@H](N)[C@H](O)[C@H](C)O1 [DOXORUBICIN] | – | 38.2 | 8.23 |

— ChEMBL document CHEMBL6177963, “Development of acylhydrazone linked thiazoles as non-covalent dual inhibitors of SARS-CoV-2 proteases” (Eur J Med Chem, 2025)
